Experimental data published in PubChem BioAssay (NCI).
Values joined by “and” are separate entries in the source; they are usually repeats but may differ in a detail not shown here. Identical values can stand only once.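 Assay format: 96-well plates, 48-hour exposure. Abbreviation: GI50, concentration required for 50% inhibition of growth. The concentration for full growth arrest is given as TGI.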

Key:
Experiment in all cases: NCI tumour cell line growth inhibition, 48 h
UACC-62 melanoma = tested on: UACC-62 melanoma
SF-268 CNS = tested on: SF-268 CNS
T-47D breast = tested on: T-47D breast
SNB-19 CNS = tested on: SNB-19 CNS
EKVX NSCLC = tested on: EKVX NSCLC
ACHN renal = tested on: ACHN renal
A549 NSCLC = tested on: A549 NSCLC
SW-620 colon = tested on: SW-620 colon
SK-MEL-2 melanoma = tested on: SK-MEL-2 melanoma
HOP-92 NSCLC = tested on: HOP-92 NSCLC

SMILES	TGI (UACC-62 melanoma)	TGI (SF-268 CNS)	TGI (T-47D breast)	TGI (SNB-19 CNS)	TGI (EKVX NSCLC)	TGI (ACHN renal)	TGI (A549 NSCLC)	TGI (SW-620 colon)	TGI (SK-MEL-2 melanoma)	TGI (HOP-92 NSCLC)	GI50 (UACC-62 melanoma)	GI50 (SNB-19 CNS)	GI50 (EKVX NSCLC)	GI50 (HOP-92 NSCLC)	GI50 (A549 NSCLC)	GI50 (SW-620 colon)	GI50 (SK-MEL-2 melanoma)
NC(CC(O)(c1ccccc1)c1ccccc1)c1ccccc1S (stereo not given)	32 µM	24.8 µM	37.4 µM	32.4 µM	25.1 µM	27.3 µM	29.5 µM	36.4 µM	33.2 µM								
CN(C)c1ccc(/C=C/C(=O)O)cc1	> 100 µM	> 100 µM		> 100 µM	> 100 µM	> 100 µM	> 100 µM	> 100 µM	> 100 µM								
Cc1ccc(S(=O)(=O)N/N=C2/CCC(C(C)(C)C)CC2Br)cc1 (stereo not given)		> 100 µM	> 100 µM	> 100 µM	> 100 µM	> 100 µM	> 100 µM	53.1 µM	28.1 µM	72.3 µM							
Cn1ccnc1CCc1ccc(Cl)c(Cl)c1	> 100 µM	> 100 µM				> 100 µM	> 100 µM	> 100 µM	> 100 µM	> 100 µM							
COc1c(C)c(C/C=C(\C)CC/C=C(\C)CC/C=C(\C)CCC=C(C)C)c(OC)c2ccccc12	> 100 µM	> 100 µM		> 100 µM	> 100 µM	> 100 µM	> 100 µM	> 100 µM	> 100 µM	> 100 µM							
C[n+]1c2ccccc2c(/C=N\NS(=O)(=O)c2ccc(Cl)cc2)c2ccccc21	> 100 µM	> 100 µM		> 100 µM	> 100 µM	> 100 µM	> 100 µM	> 100 µM	> 100 µM	> 100 µM							
Nc1nc(=O)n(C2OC(CO)C(O)C2O)c2ncc(-c3ccc(-c4ccccc4)cc3)nc12 (stereo not given)	> 100 µM	> 100 µM	> 100 µM	> 100 µM	> 100 µM	> 100 µM	> 100 µM	> 100 µM	> 100 µM	> 100 µM							
COc1ccc2[nH]c(C(=O)N3CC(CCl)c4c3cc(N)c3ccccc43)cc2c1 (stereo not given)	< 0.0116 µM	< 0.01 µM	< 0.0281 µM	< 0.0386 µM	0.128 µM			0.132 µM	0.0285 µM								
COC12C=CC(C=C1C#N)CC2 (stereo not given) (tested in a mixture with another compound)	> 100 µM	> 100 µM	> 100 µM	> 100 µM	> 100 µM	> 100 µM	> 100 µM	> 100 µM	> 100 µM	> 100 µM							
Cc1cc(N(CCC#N)CCC#N)ccc1/C=C1\SC(=S)NC1=O	> 100 µM	> 100 µM	> 100 µM	> 100 µM	> 100 µM	> 100 µM	> 100 µM	> 100 µM	> 100 µM	> 100 µM							
CCOc1ccc(/C=C2\NC(=S)N(/C=C3\C(=O)Oc4ccccc4C3=O)C2=O)cc1	37.9 µM	68 µM		59.8 µM	70 µM	56.3 µM		> 100 µM	48 µM	53.4 µM							
COC(=O)NC(Cc1ccccc1)NC(C)=O (stereo not given)	> 100 µM	> 100 µM	> 100 µM	> 100 µM	> 100 µM	> 100 µM	> 100 µM	> 100 µM	> 100 µM	> 100 µM							
CCN(CC)CCOC(=O)Cc1cccc2c(=O)cc(-c3ccccc3)oc12	62.5 µM and > 154 µM	62.5 µM and > 165 µM	50.2 µM	62.5 µM and > 211 µM	62.5 µM	62.5 µM	62.5 µM and > 209 µM	62.5 µM and > 251 µM	62.5 µM and > 212 µM	42.6 µM and 82.5 µM	39.5 µM	112 µM	25.2 µM	8.02 µM	57.4 µM	123 µM	52.9 µM
Cc1cc2oc(C)c(S(=O)(=O)NC(=O)Nc3ccc(Cl)cc3)c(=O)c2c(=O)o1	> 100 µM	> 100 µM	> 100 µM	> 100 µM	> 100 µM	> 100 µM	> 100 µM	> 100 µM	> 100 µM	> 100 µM							
O=[N+]([O-])c1ccc(N2N=C(c3ccc4ccccc4c3O)CC2c2ccc(Cl)cc2)c([N+](=O)[O-])c1 (stereo not given)	> 100 µM	> 100 µM	> 100 µM			> 100 µM	> 100 µM	> 100 µM	> 100 µM	> 100 µM							
COc1c2ccsc2c(OC)c2ccsc12	> 100 µM	> 100 µM	> 100 µM	> 100 µM	> 100 µM	> 100 µM	> 100 µM	> 100 µM	> 100 µM	> 100 µM							
CCOC(=O)C(NC(=O)CC)(Nc1ccc(F)c(Cl)c1)C(F)(F)F (stereo not given)	> 100 µM	> 100 µM	> 100 µM	> 100 µM	> 100 µM	> 100 µM	> 100 µM	> 100 µM	> 100 µM	> 100 µM							
O=C(c1ccc(O)c([N+](=O)[O-])c1)c1ccc(O)c([N+](=O)[O-])c1	> 100 µM	> 100 µM	> 100 µM	> 100 µM	> 100 µM	> 100 µM	> 100 µM	> 100 µM	> 100 µM	> 100 µM							
Cc1ccc2c(C(=O)c3c(C)n(CCN4CCOCC4)c4ccccc34)cccc2c1	45.2 µM	33.8 µM	> 100 µM	> 100 µM	63.3 µM	88.4 µM	> 100 µM	16.5 µM	42.4 µM	73.1 µM							
CCOC(=O)CCC(NC(=O)Cc1ccc(Oc2nc3ccccc3nc2-c2ccccc2)cc1)C(=O)OCC (stereo not given)	> 100 µM	> 100 µM	99.7 µM	> 100 µM	> 100 µM	> 100 µM	> 100 µM	> 100 µM	> 100 µM								
COC(=O)c1cccc(OC)c1C#Cc1c(OC)cccc1OC	> 100 µM	> 100 µM	> 100 µM	> 100 µM	> 100 µM	> 100 µM	> 100 µM	> 100 µM	> 100 µM	> 100 µM							
Cc1cc(N2CCCC2)c([N+](=O)[O-])cc1[N+](=O)[O-]	> 100 µM	> 100 µM	> 100 µM	> 100 µM	> 100 µM	> 100 µM	> 100 µM	> 100 µM	> 100 µM	> 100 µM							
